melting point	SMILES
143 to 144 °C	Cn1c(C(F)(F)F)cc(=O)n(-c2c(O)cc(Cl)cc2F)c1=O
95 to 97 °C	COC(=S)c1sc(C)c(N)c1N
80 °C	CCCCCCCOc1ccc2c(c1)N(CCCN1CCC(CCO)CC1)c1cccc(S(=O)(=O)N(C)C)c1S2
196 to 198 °C	Cc1nnc2c(NC3CCCC3)nc3ccccc3n12
42 to 43 °C	CC(=O)OCCCCCCOc1ccc([N+](=O)[O-])c(C=O)c1
204 to 206 °C	CCCCCCCNC(=O)Nc1ccc(N(C)C)cc1C(=O)NC1CCN(C(c2ccccc2)c2ccccc2)CC1
139 to 140 °C	COC(=O)c1ccc(Cn2nc(OCc3ccccc3)c3ccc(NC(=O)CC4CCCC4)cc32)c(OC)c1
217 to 218 °C	CNC(=S)C1=C(O)C2(CCOCC2)Oc2ccc([N+](=O)[O-])cc21
124 to 126 °C	COc1ccc2c(n1)CCC(=NO)C2
146 to 147 °C	Cn1cc(-c2noc(C(N)CN3CCCCC3)n2)c2ccccc21 (centres undefined)
265 to 270 °C	Cc1c(C(=O)O)nc2c(=O)[nH]c3cc(C(F)(F)F)c(-n4cccc4)cc3n12
86 to 88 °C	Oc1cccc2c1SCCC2
156 to 158 °C	O=C(O)CCCn1ccn(C2CCc3ccccc3C2)c1=S (centres undefined)
116 °C	CCC(=O)c1ccc(CCNS(=O)(=O)c2ccccc2)cc1
308 to 310 °C	Cc1cccc2[nH]c(=O)n3ccnc3c12
80 to 81 °C	COC(=O)Cc1ccc2c(c1)C(=O)c1sccc1CO2
248 °C	CCCC(=O)N1CCN(C(=O)OC2C3=C(SCCS3)C(=O)N2c2ccc3ccc(Cl)nc3n2)CC1 (centres undefined)
128 to 132 °C	CC(=O)N(C)C[C@H]1CN(c2ccc(N3CCC(=CC#N)CC3)c(F)c2)C(=O)O1
123 to 124 °C	CC12CCC(=O)NC1=CCc1ccccc12 (centres undefined)
160 °C	O=CN(O)C(CS(=O)(=O)c1ccc(-c2ccc(C(F)(F)F)cc2)cc1)c1ccc2c(c1)OCO2 (centres undefined)
91 °C	Cc1c(F)c(F)c(COC(=O)C(c2cnc(C(C)(C)C)nc2)C(C)(C)C)c(F)c1F (racemic)
76 to 80 °C	COC(=O)CN(C)C(=O)CC(Cc1cccc2ccccc12)C(=O)NC(Cc1c[nH]cn1)C(=O)NC(CC(C)C)C(O)C(=O)OC(C)C (mixture of isomers)
109 to 111 °C	CC(=O)NNC(COCc1cc(C)cc(C)c1)C1c2ccccc2CCc2ccccc21 (centres undefined)

melting point	SMILES
176 to 177 °C	O=C(c1cc2ccc(Br)cc2o1)c1cc2ccc(Br)cc2o1
90 to 92 °C	CN(CCOc1ccccc1)[C@H]1CC[C@H](c2ccc(O)cc2)CC1
215 to 216 °C	O=c1c2ccc(OCCCN3CCN(Cc4ccc(Cl)cc4)CC3)cc2oc2nn[nH]c12
110 to 113 °C	O=[N+]([O-])c1cc(CO)ccc1Sc1nccnc1Cl
252 to 254 °C	CCOC(=O)c1cnc(Nc2cc(C)ccc2C)[nH]c1=O
158 to 161 °C	CC(C)(C)OC(=O)CN1CC(c2ccco2)SCC(N2C(=O)c3ccccc3C2=O)C1=O (centres undefined)
190 to 193 °C	CCOC(=O)C(=O)Nc1cc(C)c(C)cc1C(N)=O
112 °C	c1ccc(Oc2ccc(OCn3cnc4ccccc43)cc2)cc1
165 to 167 °C	CCN(CC)C(=O)c1cnn(C)c1C(=O)Nc1ccn2nc(N3CCOCC3)nc2c1
194 °C	COC(=O)c1cc(/C=C/C(=O)O)ccc1Cl
155 to 159 °C	Cc1c(O)cc2c(c1C)N(C=O)C(C)C2 (centres undefined)
78 to 80 °C	Cc1nn(C)c(F)c1C(=O)Nc1ccccc1C(C)CC(C)(C)C (centres undefined)
165 to 167 °C	Fc1cccc(C(c2ccccc2)(c2cccc(F)c2)n2ccnc2)c1
200 °C	Cc1cc(Oc2ccc(S(=O)(=O)c3ccc(Cl)cc3)cc2)ccc1N
57.4 to 59.9 °C	Cc1ccc(-c2n[nH]c3c2CCCC3)cc1
135 to 137 °C	COC(Cn1ncc(-c2ccc(S(C)(=O)=O)cc2)c(-c2ccc(F)cc2)c1=O)c1ccccc1 (centres undefined)
97 °C	CC1(C(=O)O)CCCCC1O (centres undefined)
64 to 66 °C	O=C(c1cc(Cl)ccc1Cl)c1ccccc1I
53 to 65 °C	CC(=NOCCOc1ccc(CC2SC(=O)NC2=O)cc1)c1cc(C)c(O)c(C)c1 (centres undefined)
153 °C	Cc1c(NC(=O)c2ccc(CC(=O)CC(C)C)cc2)ccc2cc(CN3CCCC3)cnc12
169 to 174 °C	CN(C)CCSc1c2ccccc2c(-c2cc(Br)c(O[C@H](Cc3ccccc3)C(=O)O)c(Br)c2)c2c1sc1ccccc12
200 to 204 °C	N=C(NS(=O)(=O)c1ccc(F)cc1)C1=NN(c2ccc(Cl)cc2)C(c2ccccc2)C1 (centres undefined)
69 to 69.5 °C	CC(C)C(=O)Oc1ccc(C(=O)c2ccccc2)cc1

melting point	SMILES
136 to 139 °C	CCCc1c(OCCCOc2ccc(-c3cocn3)c(OC)c2CCC)ccc2c1OC(C(=O)O)CC2 (centres undefined)
104 °C	COc1ccc(C(=O)NCC[C@@H](O)C(=O)O)cc1
168 to 169 °C	Cc1oc(-c2ccccc2)nc1CC=Cc1ccc(CC2OC(=O)NC2=O)cc1 (centres undefined)
273 to 275 °C	O=C(c1ccccc1)c1c[nH]c2ncnc(Nc3cccc(CO)c3)c12
97 to 98 °C	Cc1cccc(C)c1NCCCNCC(O)COc1ccc(O)cc1 (centres undefined)
90.5 to 91.5 °C	CCC(C)Nc1c(C(F)(F)F)cc([N+](=O)[O-])c(Cl)c1[N+](=O)[O-] (centres undefined)
164 to 166 °C	O=c1ccn(CCO)c(C(O)c2ccccc2F)c1OCc1ccccc1 (centres undefined)
164 to 166 °C	Cc1ccc(-c2ccccc2-c2nnnn2-c2ccc([N+](=O)[O-])cc2)cc1
150 °C	O=C1c2ccccc2C(=O)N1CC(=O)N(Cc1ccccc1)c1ccccc1
100 °C	COC(C)=C(Cl)C(=O)Nc1ccccc1
212 to 213 °C	CC1(C)OC(=O)C(=C(Nc2ccccc2Br)N2CCOCC2)C(=O)O1
196 °C	O=C(c1ccc(I)cc1)c1ccc2noc(-c3cccc(Cl)c3)c2c1
175 °C	O=C(C=Cc1ccc(O)cc1)N1CCc2c([nH]c3ccccc23)C1c1ccc2c(c1)OCO2 (centres undefined)
283 °C	CCCN(CCC)c1ccc2c(c1)O/C(=C1/Oc3cc(N(CCC)CCC)ccc3C1=O)C2=O
110 to 111 °C	C[Si](C)(C)C#Cc1ccc(Oc2ccc(C(=O)C(=O)c3cccc(C(=O)C(=O)c4ccc(Oc5ccc(C#C[Si](C)(C)C)cc5)cc4)c3)cc2)cc1
195 to 197 °C	Cc1cc(=O)[nH]c2ccc(OCCCN3CCN(Cc4ccc(Cl)cc4)CC3)cc12
243 to 244 °C	CC(=O)N1CCN(c2nc(Nc3ccc(F)cc3F)c(C(=O)O)cc2F)CC1
160 °C	Cn1cncc1-c1nc(-c2cccc(Cl)c2)c2cc(C(O)(c3ccc(Cl)cc3)c3cncn3C)ccc2n1 (centres undefined)
184 to 186 °C	CCOC(=O)c1c(CO)c(C)n(C)c1C
86 to 87 °C	O=C(Nc1ccc(F)cc1F)c1cccc(Cl)n1
189 to 192 °C	COC(=O)CCC1(NC(=O)c2cc3c4ccccc4n(C(C)=O)c3cn2)C(=O)N(c2ccccc2)c2ccccc21 (centres undefined)

SMILES	melting point
CCCCCCCOC(N)=O	84 °C
C#CC[C@]12C=CC(=O)C=C1CC[C@H]1[C@@H]3CCC(=O)[C@@]3(C)CC[C@@H]12	200 to 201 °C
